Measurements reported in article PMC8132113 (Cancer letters, 2019).

Target: ABCB1 (Homo sapiens, UniProt P08183)
Assay: vanadate-sensitive ATPase assay
Type: biochemical

ABCB1, sequence (P08183 whole entry): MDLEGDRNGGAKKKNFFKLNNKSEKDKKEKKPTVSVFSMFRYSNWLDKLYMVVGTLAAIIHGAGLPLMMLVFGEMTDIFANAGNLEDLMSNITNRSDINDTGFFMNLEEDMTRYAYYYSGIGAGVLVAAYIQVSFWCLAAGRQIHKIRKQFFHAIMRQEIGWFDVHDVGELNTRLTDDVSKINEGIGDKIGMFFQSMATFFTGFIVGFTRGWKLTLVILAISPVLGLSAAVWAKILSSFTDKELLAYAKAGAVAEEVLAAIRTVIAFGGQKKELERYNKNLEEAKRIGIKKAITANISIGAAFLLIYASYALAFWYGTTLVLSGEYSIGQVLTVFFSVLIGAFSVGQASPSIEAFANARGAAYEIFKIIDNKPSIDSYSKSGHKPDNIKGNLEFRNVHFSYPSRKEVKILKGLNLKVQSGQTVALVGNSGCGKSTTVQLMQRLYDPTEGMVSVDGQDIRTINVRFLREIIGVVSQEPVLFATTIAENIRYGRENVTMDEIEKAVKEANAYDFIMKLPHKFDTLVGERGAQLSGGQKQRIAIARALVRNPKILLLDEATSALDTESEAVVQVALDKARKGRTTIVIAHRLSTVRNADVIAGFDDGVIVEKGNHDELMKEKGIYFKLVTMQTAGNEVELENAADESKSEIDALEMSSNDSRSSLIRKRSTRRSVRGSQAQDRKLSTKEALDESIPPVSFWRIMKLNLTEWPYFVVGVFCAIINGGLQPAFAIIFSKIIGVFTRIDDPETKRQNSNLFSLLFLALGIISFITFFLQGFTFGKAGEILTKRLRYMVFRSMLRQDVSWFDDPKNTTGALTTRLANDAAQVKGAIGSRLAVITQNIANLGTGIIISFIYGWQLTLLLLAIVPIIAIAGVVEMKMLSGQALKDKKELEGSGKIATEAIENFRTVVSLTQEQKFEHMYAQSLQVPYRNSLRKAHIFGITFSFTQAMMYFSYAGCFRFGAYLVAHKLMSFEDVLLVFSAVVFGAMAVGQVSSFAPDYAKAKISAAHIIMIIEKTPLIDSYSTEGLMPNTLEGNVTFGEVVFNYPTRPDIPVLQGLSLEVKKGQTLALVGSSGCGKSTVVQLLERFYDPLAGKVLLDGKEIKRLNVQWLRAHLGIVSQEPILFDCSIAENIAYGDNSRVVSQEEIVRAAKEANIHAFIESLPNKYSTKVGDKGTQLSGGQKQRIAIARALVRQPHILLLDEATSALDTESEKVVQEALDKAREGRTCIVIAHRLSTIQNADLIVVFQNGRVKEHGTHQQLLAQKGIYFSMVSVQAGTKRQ

In the case of `CO[C@@H]1[C@H](N(C)C(=O)c2ccccc2)C[C@H]2O[C@]1(C)n1c3ccccc3c3c4c(c5c6ccccc6n2c5c31)C(=O)NC4` [midostaurin], the IC50 is reported as about 10 µM.
